The values that follow come from ChEMBL document CHEMBL3769406, “A phenotypic drug discovery study on thienodiazepine derivatives as inhibitors of T cell proliferation induced by CD28 co-stimulation leads to the discovery of a first bromodomain inhibitor” (Bioorg Med Chem Lett, 2016).

Calls of active or inactive are those of the source. The rule behind the calls is not given here.

Experiment [1] can be described thus: Immunosuppressive activity in BALB/c mouse splenic T cells assessed as inhibition of PMA/CD28 induced cell proliferation after 24 hrs by [methyl-3H]thymidine incorporation assay. It counts as functional, cell-based.
Experiment [2] has as its target Bromodomain-containing protein 2 (Homo sapiens) (UniProt P25440). As to the kind of experiment: Competitive inhibition of BRD2 in PMA /ionomycin activated human Jurkat cell lysate in presence of (S)-4-{3'-Cyano-4'-[3-(3-{2-[5-((3aR,6S,6aS)-2-oxo-hexahydro-thieno[3,4-d]imidazol-6-yl)-pentanoylamino]-ethyldisulfanyl}-propionylamino)-propoxy]-biphenyl-4-yl}-2,3,9-trimethyl-6H-1-thia-5,7,8,9a-tetraaza-cyclopenta[e]azulene-6-yl]acetic acid ethyl ester/avidin-resin by pull down assay. It counts as cell-based.

Experiment [3] has as its target T1, Bromodomain-containing protein 4 (Homo sapiens, UniProt O60885). As to the kind of experiment: Competitive inhibition of BRD4 in PMA /ionomycin activated human Jurkat cell lysate in presence of (S)-4-{3'-Cyano-4'-[3-(3-{2-[5-((3aR,6S,6aS)-2-oxo-hexahydro-thieno[3,4-d]imidazol-6-yl)-pentanoylamino]-ethyldisulfanyl}-propionylamino)-propoxy]-biphenyl-4-yl}-2,3,9-trimethyl-6H-1-thia-5,7,8,9a-tetraaza-cyclopenta[e]azulene-6-yl]acetic acid ethyl ester/avidin-resin by pull down assay. Type of experiment: cell-based.

Experiment [4] concerns the target Bromodomain-containing protein 3 (Homo sapiens) (UniProt Q15059). As to the kind of experiment: Competitive inhibition of BRD3 in PMA /ionomycin activated human Jurkat cell lysate in presence of (S)-4-{3'-Cyano-4'-[3-(3-{2-[5-((3aR,6S,6aS)-2-oxo-hexahydro-thieno[3,4-d]imidazol-6-yl)-pentanoylamino]-ethyldisulfanyl}-propionylamino)-propoxy]-biphenyl-4-yl}-2,3,9-trimethyl-6H-1-thia-5,7,8,9a-tetraaza-cyclopenta[e]azulene-6-yl]acetic acid ethyl ester/avidin-resin by pull down assay. It counts as cell-based.

The nature of experiment [5]: Antitumor activity against human HL60 cells xenografted in nude mouse assessed as inhibition of relative tumor growth at 30 mg/kg, po qd administered for 14 days. It counts as functional. To be noted: HL-60, po, 336 h, read-out: TGI.
A short description of experiment [6]: Cytotoxicity against mouse M1 cells after 72 hrs by WST-8 assay. It counts as functional. To be noted: M1, 72 h.
Experiment [7] addresses Bromodomain-containing protein 3 (Homo sapiens) (UniProt Q15059). As to the kind of experiment: Inhibition of Flag-tagged BRD3 (unknown origin)-biotinylated AcH4 (Lys5, 8, 12, 16) histone peptide binding expressed in CHO cells after 60 mins by TR-FRET assay. It counts as cell-based.
The nature of experiment [8]: Cytotoxicity against human MV411 cells after 72 hrs by WST-8 assay. Type of experiment: functional. To be noted: MV4-11, 72 h.
A short description of experiment [9]: Antitumor activity against human HL60 cells xenografted in nude mouse assessed as inhibition of relative tumor growth at 10 mg/kg, po qd administered for 14 days. It counts as functional. To be noted: HL-60, po, 336 h, read-out: TGI.
The test system of experiment [10] is LNCaP. As to the kind of experiment: Cytotoxicity against human LNCAP cells after 72 hrs by WST-8 assay. Type of experiment: functional.
The nature of experiment [11]: Cytotoxicity against human COLO205 cells after 72 hrs by WST-8 assay. It counts as functional. To be noted: COLO 205, 72 h.
A short description of experiment [12]: Cytotoxicity against human RPMI8226 cells after 72 hrs by WST-8 assay. Type of experiment: functional. To be noted: RPMI-8226, 72 h.
Experiment [13] relates to A549. As to the kind of experiment: Cytotoxicity against human A549 cells after 72 hrs by WST-8 assay. Type of experiment: functional. The following applies: A549, 72 h.
Experiment [14] in a line: Cytotoxicity against mouse LLC cells after 72 hrs by WST-8 assay. It counts as functional. To be noted: Lewis lung carcinoma.
Experiment [15] has as its system HeLa. As to the kind of experiment: Cytotoxicity against human HeLa cells after 72 hrs by WST-8 assay. It counts as functional.
Experiment [16] in a line: Cytotoxicity against human LN18 cells after 72 hrs by WST-8 assay. Type of experiment: functional. The following applies: LN-18, 72 h.
Experiment [17] has as its system A2780. As to the kind of experiment: Cytotoxicity against human A2780 cells after 72 hrs by WST-8 assay. It counts as functional. The following applies: A2780, 72 h.
A short description of experiment [18]: Cytotoxicity against human HL60 cells after 72 hrs by WST-8 assay. It counts as functional. To be noted: HL-60, 72 h.
Experiment [19] has as its target T1, Bromodomain-containing protein 4. As to the kind of experiment: Inhibition of Flag-tagged BRD4 (unknown origin)-biotinylated AcH4 (Lys5, 8, 12, 16) histone peptide binding expressed in CHO cells after 60 mins by TR-FRET assay. It counts as cell-based.
The nature of experiment [20]: Cytotoxicity against human U87MG cells after 72 hrs by WST-8 assay. It counts as functional, U-87MG ATCC. The following applies: U-87 MG.
Experiment [21] has as its system Daudi. As to the kind of experiment: Cytotoxicity against human Daudi cells after 72 hrs by WST-8 assay. Type of experiment: functional.
Experiment [22] can be described thus: Cytotoxicity against human KIM1 cells after 72 hrs by WST-8 assay. Type of experiment: functional. The following applies: KIM1, 72 h.
Experiment [23] has as its system Mus musculus. As to the kind of experiment: Immunosuppressive activity in collagen-induced DBA/1J mouse arthritis model at 0.3 to 1 mg/kg, po administered for […] of immunization with bovine type II collagen measured at 21 to 42 days after primary immunization. It counts as functional, organism-based.
The nature of experiment [24]: Antitumor activity against human HL60 cells xenografted in nude mouse assessed as inhibition of relative tumor growth at 10 mg/kg, po bid administered for 14 days. It counts as functional. The following applies: HL-60, po, 336 h, read-out: TGI.
Experiment [25] addresses Bromodomain-containing protein 2 (Homo sapiens) (UniProt P25440). As to the kind of experiment: Inhibition of Flag-tagged BRD2 (unknown origin)-biotinylated AcH4 (Lys5, 8, 12, 16) histone peptide binding expressed in CHO cells after 60 mins by TR-FRET assay. It counts as cell-based.
A short description of experiment [26]: Cytotoxicity against human EBC1 cells after 72 hrs by WST-8 assay. The following applies: EBC-1, 72 h. It counts as functional.
Experiment [27] has as its system B16. As to the kind of experiment: Cytotoxicity against mouse B16 cells after 72 hrs by WST-8 assay. Type of experiment: functional. To be noted: B16, 72 h.
Experiment [28] in a line: Cytotoxicity against human SKOV3 cells after 72 hrs by WST-8 assay. It counts as functional. To be noted: SK-OV-3, 72 h.
Experiment [29] in a line: Cytotoxicity against human U937 cells after 72 hrs by WST-8 assay. Type of experiment: functional. To be noted: U-937, 72 h.

Chain of Bromodomain-containing protein 3 (Homo sapiens) (Q15059 2-726 limits assumed): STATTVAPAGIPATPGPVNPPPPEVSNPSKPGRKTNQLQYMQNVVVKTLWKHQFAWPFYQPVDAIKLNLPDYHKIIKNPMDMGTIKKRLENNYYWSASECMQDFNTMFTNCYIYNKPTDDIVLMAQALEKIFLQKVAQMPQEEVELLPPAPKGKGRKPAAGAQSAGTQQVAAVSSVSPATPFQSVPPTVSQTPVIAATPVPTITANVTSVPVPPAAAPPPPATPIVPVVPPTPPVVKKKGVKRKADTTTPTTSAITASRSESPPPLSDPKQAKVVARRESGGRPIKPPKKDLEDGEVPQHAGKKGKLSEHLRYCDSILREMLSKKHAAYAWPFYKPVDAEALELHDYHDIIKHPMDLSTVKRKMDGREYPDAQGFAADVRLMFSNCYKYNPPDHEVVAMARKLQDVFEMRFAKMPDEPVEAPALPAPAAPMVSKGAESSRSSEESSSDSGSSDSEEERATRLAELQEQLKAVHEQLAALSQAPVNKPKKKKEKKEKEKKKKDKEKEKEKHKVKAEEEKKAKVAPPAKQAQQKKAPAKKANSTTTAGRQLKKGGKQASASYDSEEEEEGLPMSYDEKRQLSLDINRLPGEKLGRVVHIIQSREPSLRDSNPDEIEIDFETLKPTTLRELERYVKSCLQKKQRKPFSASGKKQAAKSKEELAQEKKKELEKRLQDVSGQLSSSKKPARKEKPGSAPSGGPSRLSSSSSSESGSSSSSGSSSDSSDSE
Chain of Bromodomain-containing protein 2 (Homo sapiens) (P25440 whole entry, looked up): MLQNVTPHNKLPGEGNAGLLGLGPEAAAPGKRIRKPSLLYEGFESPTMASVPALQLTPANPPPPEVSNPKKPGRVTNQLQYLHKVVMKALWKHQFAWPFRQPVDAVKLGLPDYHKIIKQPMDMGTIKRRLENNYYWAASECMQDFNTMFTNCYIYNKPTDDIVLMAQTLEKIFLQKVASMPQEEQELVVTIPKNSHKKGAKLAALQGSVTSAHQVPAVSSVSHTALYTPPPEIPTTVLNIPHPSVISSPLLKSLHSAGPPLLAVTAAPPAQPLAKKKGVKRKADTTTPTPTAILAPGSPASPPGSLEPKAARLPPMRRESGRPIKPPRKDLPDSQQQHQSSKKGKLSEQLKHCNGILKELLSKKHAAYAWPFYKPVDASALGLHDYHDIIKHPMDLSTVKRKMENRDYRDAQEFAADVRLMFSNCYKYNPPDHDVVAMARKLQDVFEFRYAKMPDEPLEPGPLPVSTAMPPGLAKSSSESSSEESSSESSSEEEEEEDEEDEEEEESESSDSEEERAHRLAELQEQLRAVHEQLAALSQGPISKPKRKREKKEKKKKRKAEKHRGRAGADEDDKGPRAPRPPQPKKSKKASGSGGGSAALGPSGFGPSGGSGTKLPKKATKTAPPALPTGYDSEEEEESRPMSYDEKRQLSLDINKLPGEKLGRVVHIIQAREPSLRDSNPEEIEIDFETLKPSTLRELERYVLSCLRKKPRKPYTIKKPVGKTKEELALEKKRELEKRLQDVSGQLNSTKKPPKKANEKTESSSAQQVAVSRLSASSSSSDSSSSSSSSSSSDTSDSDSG

Regarding `CCOC(=O)C[C@@H]1N=C(c2ccc(Cl)cc2)c2c(sc(C)c2C)-n2c(C)nnc21`, the IC50 in experiment [1] came to 0.012 µM.
As for `COC(=O)C[C@@H]1N=C(c2ccc(-c3cccc(OC(F)(F)F)c3)cc2)c2c(sc(C)c2C)-n2c(C)nnc21`, in [1], the IC50 is 0.16 µM.
Same read-out and setting: then `COC(=O)C[C@@H]1N=C(c2ccc(-c3cccc(NC(C)=O)c3)cc2)c2c(sc(C)c2C)-n2c(C)nnc21`, with 0.027 µM; and `Cc1sc2c(c1C)C(c1ccc(Cl)cc1)=NC(CCc1ccccc1)c1nnc(C)n1-2` (racemic), with 2.68 µM.
Same read-out and setting: as for `COC(=O)C[C@@H]1N=C(c2ccc(Cl)cc2)c2c(sc(C)c2C)-n2c(C)nnc21`, the figure is 0.038 µM; as for `Cc1sc2c(c1C)C(c1ccc(Cl)cc1)=N[C@@H](CCO)c1nnc(C)n1-2`, 0.58 µM.
In the case of `COC(=O)C[C@H]1N=C(c2ccc(-c3cccc(C#N)c3)cc2)c2c(sc(C)c2C)-n2c(C)nnc21`, the inhibition entry in [2], in experiment [3] and in experiment [4] was “inactive” throughout.
For `COC(=O)C[C@@H]1N=C(c2ccc(-c3ccccc3OC)cc2)c2c(sc(C)c2C)-n2c(C)nnc21`, the IC50 in experiment [1] is 0.19 µM.
For the compound `Cc1sc2c(c1C)C(c1ccc(Cl)cc1)=N[C@@H](CC(=O)OCc1ccccc1)c1nnc(C)n1-2`, in [1], the 50% inhibitory concentration (IC50) was determined as 0.036 µM.
Take `COC(=O)C[C@@H]1N=C(c2ccc(-c3cccc(C(C)=O)c3)cc2)c2c(sc(C)c2C)-n2c(C)nnc21`: in [1], the IC50 came to 0.015 µM.
The same measure, in the same setting: as for `CCCOC(=O)C[C@@H]1N=C(c2ccc(Cl)cc2)c2c(sc(C)c2C)-n2c(C)nnc21`, the figure is 0.03 µM; as for `Cc1sc2c(c1C)C(c1ccc(Cl)cc1)=N[C@@H](CC(=O)OC(C)(C)C)c1nnc(C)n1-2`, 0.11 µM; as for `COC(=O)C[C@@H]1N=C(c2ccc(-c3cccc(OC)c3)cc2)c2c(sc(C)c2C)-n2c(C)nnc21`, 0.036 µM.
As to `COC(=O)C[C@@H]1N=C(c2ccc(-c3ccc(OC)cc3)cc2)c2c(sc(C)c2C)-n2c(C)nnc21`, the IC50 in experiment [1] amounted to 0.053 µM.
Same read-out and setting: as for `COC(=O)C[C@@H]1N=C(c2ccc(-c3cccc(O)c3)cc2)c2c(sc(C)c2C)-n2c(C)nnc21`, the figure is 0.032 µM.
On the same count and under the same terms, then `Cc1sc2c(c1C)C(c1ccc(Cl)cc1)=NC(Cc1ccccn1)c1nnc(C)n1-2` (racemic), with 0.33 µM.
The same measure, in the same setting: then `Cc1sc2c(c1C)C(c1ccc(Cl)cc1)=N[C@@H](CCC#N)c1nnc(C)n1-2`, with 0.1 µM; and `CCC1N=C(c2ccc(Cl)cc2)c2c(sc(C)c2C)-n2c(C)nnc21` (racemic), with 0.34 µM.
For the compound `Cc1sc2c(c1C)C(c1ccc(Cl)cc1)=NCc1nnc(C)n1-2`, the IC50 in [1] turned out to be 2.5 µM.
Same read-out and setting: then `COC(=O)C[C@@H]1N=C(c2ccc(-c3ccc(C#N)cc3)cc2)c2c(sc(C)c2C)-n2c(C)nnc21`, with 0.033 µM.
On the same count and under the same terms, then `COCC[C@@H]1N=C(c2ccc(Cl)cc2)c2c(sc(C)c2C)-n2c(C)nnc21`, with 0.39 µM.
The same measure, in the same setting: as for `Cc1sc2c(c1C)C(c1ccc(Cl)cc1)=NC(Cc1ccccc1)c1nnc(C)n1-2` (racemic), the figure is 0.5 µM.
Take `COC(=O)C[C@@H]1N=C(c2ccc(-c3cccc(C#N)c3)cc2)c2c(sc(C)c2C)-n2c(C)nnc21`: the inhibition in vivo at 30 mg/kg in experiment [5] turned out to be 65%. Moreover, the results for the IC50 in experiment [1] and in experiment [19] were 0.026 µM and 0.0339 µM, respectively. The 50% growth inhibitory concentration (GI50) in experiment [6] was 0.003 µM; in [8], 0.019 µM; in [10], 0.201 µM; in experiment [11], 0.484 µM; in experiment [12], 0.069 µM; in experiment [13], more than 10 µM. Moreover, the GI50 in experiment [14] was 1.5 µM; in [15] it was 0.274 µM; in [16], 0.207 µM; in experiment [17], 0.13 µM; in [18], 0.007 µM; in experiment [20] it was more than 10 µM. For the same compound, the GI50 in experiment [21] stood at 0.067 µM; in [22], 0.104 µM; in [26], 0.207 µM; in experiment [27], 0.08 µM; in [28], 5.27 µM; in experiment [29], 0.829 µM. Besides, the inhibition result in experiment [7] and in [25] was “Active” each time. In addition, the inhibition in vivo at 10 mg/kg in experiment [9] stood at 43%; in [24], 80%. The inhibition entry in experiment [2], in experiment [3] and in [4] was “Dose-dependent effect” throughout. The result in experiment [23] was Active.
Regarding `COC(=O)CC1N=C(c2ccc(-c3ccccc3)cc2)c2c(sc(C)c2C)-n2c(C)nnc21` (racemic), in experiment [1], the IC50 turned out to be 0.22 µM.
With `Cc1sc2c(c1C)C(c1ccc(Cl)cc1)=NC(Cc1ccncc1)c1nnc(C)n1-2` (racemic), the 50% inhibitory concentration (IC50) in experiment [1] worked out at 0.24 µM.
The same measure, in the same setting: as for `Cc1sc2c(c1C)C(c1ccc(Cl)cc1)=NC(C)c1nnc(C)n1-2` (racemic), the figure is 0.39 µM.
On the same count and under the same terms, as for `COC(=O)C[C@@H]1N=C(c2ccc(-c3ccccc3C#N)cc2)c2c(sc(C)c2C)-n2c(C)nnc21`, the figure is 0.18 µM.
Same read-out and setting: then `COC(=O)C[C@@H]1N=C(c2ccc(-c3ccc(O)c(C#N)c3)cc2)c2c(sc(C)c2C)-n2c(C)nnc21`, with 0.0025 µM; and `Cc1sc2c(c1C)C(c1ccc(Cl)cc1)=NC(Cc1cccnc1)c1nnc(C)n1-2` (racemic), with 0.4 µM; and `COC(=O)C[C@H]1N=C(c2ccc(Cl)cc2)c2c(sc(C)c2C)-n2c(C)nnc21`, with more than 10 µM.
Regarding `COC(=O)C[C@@H]1N=C(c2ccc(-c3cccc(S(C)(=O)=O)c3)cc2)c2c(sc(C)c2C)-n2c(C)nnc21`, the IC50 in experiment [1] is 0.0098 µM.
On the same count and under the same terms, then `Cc1sc2c(c1C)C(c1ccc(Cl)cc1)=N[C@@H](CC(=O)OC(C)C)c1nnc(C)n1-2`, with 0.044 µM.
